Test system: LG0567-F671-PDC complex spheroids viability
Assay: Anticancer human tumor LG0567-F671-PDC patient-derived lung adenocarcinoma cell line growth inhibition [RAS]
Conditions: for IC50: curve of first compound; for viability, T/C: stronger effect = lower value
Text: RAS pathway inhibitors in Combinations in Complex Spheroids
A high-throughput screen of multi-cell type tumor spheroids was designed to identify active combinations of RAS pathway inhibitors and targeted small molecules. Complex spheroids include a stromal component modeled by human endothelial cells (HUVEC) and fibroblasts modeled by human mesenchymal stem cells (MSCs). The concentration ranges selected for each drug and investigational agent were based upon clinically achievable concentrations if the clinical Cmax of the agent was known.
Compounds. The drugs and investigational agents: abemaciclib (NSC768073), cobimetinib (NSC768068), divarasib (GDC6063, NSC841802), docetaxel (NSC628503), GDC-1971 (RLY-1971, NSC841576), gemcitabine (NSC613327), inavolisib (NSC800729), ipatasertib (NSC767898), KB-0742 (NSC834161), MRTX-1133 (NSC836407), osimertinib (NSC779217), RMC-4630 (NSC839698), RMC-6236 (NSC851965), RMC-6291 (NSC852671), Ro-3306 (NSC812927), sapanisertib (NSC764658), SN-38 (NSC673596), staurosporine (NSC755774), SY5609 (NSC837396), and tovorafenib (DAY101, NSC766906), were obtained from the National Cancer Institute (NCI) Developmental Therapeutics Program Chemical Repository. The FDA-approved anticancer drug set is available from the NCI Developmental Therapeutics Program. […] The stock solutions were prepared in dimethyl sulfoxide (DMSO, Sigma-Aldrich, St. Louis, MO, cat. D2650) at 800-fold the tested concentration and stored at -70 degrees C prior to their use. All drugs and investigational agents were tested over a range starting from a high concentration at or near the clinical Cmax and decreasing in half-log increments. If the clinical Cmax for an agent had not been determined, the highest concentration tested was 10 microM.
Cell Culture. All cells were maintained in an incubator at 37 degrees C and 5% CO2 with 95% humidity. The PDC lines were cultured according to standard operating procedures established by the NCI PDMR. All PDCs were thawed and cultured in Matrigel-coated flasks prepared with a working solution of 1X Ham's F-12 nutrient mix, without supplementation (Invitrogen, Waltham, MA, cat. 11765054), 100 U/mL penicillin-streptomycin (Invitrogen, cat. 15140122), and 2.5% Matrigel (Corning Inc., Corning, NY, cat. 354248) for the first three passages. The 362531-283-R-J2-PDC and 782815-120-R-J1-PDC lines were cultured in 6C/Colon 1B media, which includes advanced DMEM/F-12 (Thermo Fisher Scientific, cat. 12634028), 10 mM HEPES (Thermo Fisher Scientific, cat. 15630080), 1X GlutaMAX supplement (Thermo Fisher Scientific, cat. 35050061), 0.1 mg/mL primocin (InvivoGen, San Diego, CA, cat. ant-pm-2), 10% defined fetal bovine serum, heat inactivated (HyClone Laboratories Inc., Logan, UT, cat. SH30070.03HI), 50% L-WRN conditioned media (ATCC, cat. CRL-3276), 1.25 mM N-Acetyl-L-cysteine (Sigma-Aldrich, cat. A9165), 10 mM nicotinamide (Sigma-Aldrich, cat. N0636), 1X B-27 supplement (Thermo Fisher Scientific, cat. 17504044), 1X N-2 supplement (Thermo Fisher Scientific, cat. 17502048), 50 ng/mL human EGF (Thermo Fisher Scientific, cat. PHG0311), and 10 microM Y-27632 dihydrochloride (Tocris Bioscience, cat. 1254). The K12877-001-R-J1-PDC line was cultured in 6I media, which includes all 6C/Colon 1B media plus 10 ng/mL human FGF-10 (PeproTech, cat. 100-26), 1 ng/mL human FGF-2 (PeproTech, cat. 100-18B), 1 µM prostaglandin E2 (Tocris Bioscience, cat. 2296), […] hydrocortisone (Sigma-Aldrich, cat. H4001), and […] bovine insulin (Sigma-Aldrich, cat. I6634). The K86415-001-R-J1-PDC line was cultured in 6D media, which includes all 6C/Colon 1B media components minus the L-WRN conditioned media. The 485176-168-R4-J1-PDC was cultured in PANC media, which includes all 6C/Colon 1B media plus 100 ng/mL human FGF-10 (PeproTech, cat. 100-26), 500 nM SB-431542 (Selleckchem, cat. S1067), and 10 nM gastrin (Tocris Bioscience, cat. 3006). […]
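Also: spheroids exposed to compound for seven days before readout.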
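For IC50 in this document: luminescence signal used as a proxy for viable cells.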

- IC50 (second compound 0.000949 µM): < 0.949 nM
- IC50 (second compound 0.003 µM): < 0.949 nM
- IC50 (second compound 0.00949 µM): < 0.949 nM
- IC50 (second compound 0.03 µM): < 0.949 nM
- IC50 (second compound 0.0949 µM): < 0.949 nM
- IC50 (second compound 0.3 µM): < 0.949 nM
Structure (SMILES): CCc1c2c(nc3ccc(O)cc13)-c1cc3c(c(=O)n1C2)COC(=O)[C@]3(O)CC + CCn1c(-c2cc(N3CCN(C)CC3)cnc2C(C)OC)c2c3cc(ccc31)-c1csc(n1)CC(NC(=O)C1CC1C)C(=O)N1CCCC(N1)C(=O)OCC(C)(C)C2
- viability, T/C (second compound 0.000949 µM, first compound 0.000949 µM): 25.9%
- viability, T/C (second compound 0.000949 µM, first compound 0.003 µM): 19.2%
- viability, T/C (second compound 0.000949 µM, first compound 0.00949 µM): 16.8%
- viability, T/C (second compound 0.000949 µM, first compound 0.03 µM): 9.71%
- viability, T/C (second compound 0.000949 µM, first compound 0.0949 µM): 6.4%
- viability, T/C (second compound 0.000949 µM, first compound 0.3 µM): 3.66%
- viability, T/C (second compound 0.003 µM, first compound 0.000949 µM): 13.2%
- viability, T/C (second compound 0.003 µM, first compound 0.003 µM): 10.5%
- viability, T/C (second compound 0.003 µM, first compound 0.00949 µM): 8.66%
- viability, T/C (second compound 0.003 µM, first compound 0.03 µM): 6.1%
- viability, T/C (second compound 0.003 µM, first compound 0.0949 µM): 4.22%
- viability, T/C (second compound 0.003 µM, first compound 0.3 µM): 2.19%
- viability, T/C (second compound 0.00949 µM, first compound 0.000949 µM): 6.6%
- viability, T/C (second compound 0.00949 µM, first compound 0.003 µM): 5.95%
- viability, T/C (second compound 0.00949 µM, first compound 0.00949 µM): 4.92%
- viability, T/C (second compound 0.00949 µM, first compound 0.03 µM): 3.8%
- viability, T/C (second compound 0.00949 µM, first compound 0.0949 µM): 2.17%
- viability, T/C (second compound 0.00949 µM, first compound 0.3 µM): 1.39%
- viability, T/C (second compound 0.03 µM, first compound 0.000949 µM): 4.12%
- viability, T/C (second compound 0.03 µM, first compound 0.003 µM): 3.96%
- viability, T/C (second compound 0.03 µM, first compound 0.00949 µM): 3.68%
- viability, T/C (second compound 0.03 µM, first compound 0.03 µM): 2.7%
- viability, T/C (second compound 0.03 µM, first compound 0.0949 µM): 1.39%
- viability, T/C (second compound 0.03 µM, first compound 0.3 µM): 0.64%
- viability, T/C (second compound 0.0949 µM, first compound 0.000949 µM): 3.25%
- viability, T/C (second compound 0.0949 µM, first compound 0.003 µM): 3.49%
- viability, T/C (second compound 0.0949 µM, first compound 0.00949 µM): 2.57%
- viability, T/C (second compound 0.0949 µM, first compound 0.03 µM): 1.66%
- viability, T/C (second compound 0.0949 µM, first compound 0.0949 µM): 1.51%
- viability, T/C (second compound 0.0949 µM, first compound 0.3 µM): 0.39%
- viability, T/C (second compound 0.3 µM, first compound 0.000949 µM): 2.45%
- viability, T/C (second compound 0.3 µM, first compound 0.003 µM): 2.81%
- viability, T/C (second compound 0.3 µM, first compound 0.00949 µM): 2.34%
- viability, T/C (second compound 0.3 µM, first compound 0.03 µM): 1.76%
- viability, T/C (second compound 0.3 µM, first compound 0.0949 µM): 0.8%
- viability, T/C (second compound 0.3 µM, first compound 0.3 µM): 0.31%
